The values below come from US11266701B2, “Synergistic combinations of caffeine, ginkgo biloba and beta-phenylethylamine” (TRINUTRA LTD., priority 2016, dated 2022).

The test system of this assay is murine macrophage cell line, RAW 264.7. Briefly: Nitric oxide (NO) release from LPS-induced RAW 264.7 cells (Griess Reagent System). It counts as cell-based. The method, then:
10^5 cells from a murine macrophage cell line, RAW 264.7, were seeded in 96-well plates in a medium containing 1% FBS, 1% Glutamine and 1% Pen/strep in DMEM. […] In addition, positive control cells were treated with 20 μM dexamethasone. Nitric oxide (NO) release was tested after incubation at 37° C., 5% CO2 using the Griess Reagent System. The method is based on the chemical diazotization reaction that was originally described by Griess in 1879, which uses sulfanilamide and N-1-napthylethylenediamine dihydrochloride (NED) under acidic (phosphoric acid) conditions. This system detects NO2^− in a variety of biological and experimental liquid matrices such as tissue culture medium that was tested in this study.

For `NCCc1ccccc1` [PEA, β-phenylethylamine], the “NO release as % of LPS-only negative control” value is reported as ~85% (FIG. 1: 240 μg/ml Ginkgo biloba, 500 μg/ml PEA, tested separately, LPS 5 ng/ml, 22 hours) and 95% (FIG. 2: 240 μg/ml Ginkgo biloba, 120 μg/ml PEA, tested separately, LPS 5 ng/ml, 22 hours). Also, the “reduction in NO release” value (FIG. 3: 630 μg/ml PEA alone, C+G+P = 390 μg/ml caffeine + 40 μg/ml Ginkgo biloba + 630 μg/ml PEA) worked out at 20%. In addition, the “effect on NO release” value (FIG. 4: 630 μg/ml PEA alone, binary combination 390 μg/ml caffeine + 630 μg/ml PEA) is listed as “significant reduction”. Also, the “NO release inhibition” value (FIG. 5: 40 μg/ml Ginkgo biloba, 630 μg/ml PEA, separately and as binary combination) is reported as “a certain degree of NO release inhibition”. Besides, the “effect on NO release compared with dexamethasone positive control” value (FIGS. 3-6: 390 μg/ml caffeine, 40 μg/ml Ginkgo biloba, 630 μg/ml PEA) is “considerably less than that seen in the positive control”.

Consider `Cn1c(=O)c2c(ncn2C)n(C)c1=O` [caffeine], for which the “effect on NO release” value by setting is: (FIG. 1: 40 μg/ml caffeine tested separately, LPS 5 ng/ml, 22 hours) “essentially without effect”; (FIG. 2: 40 μg/ml caffeine tested separately, LPS 5 ng/ml, 22 hours) “essentially without effect”; (FIG. 3: 390 μg/ml caffeine, 40 μg/ml Ginkgo biloba, tested separately) “slight reduction”.
